In PMC12693419, “Design, Synthesis, Biological Evaluation, and In Silico Studies of Novel Multitarget Cinnamic Acid Hybrids” (Molecules, 2025):
Like-named read-outs stand apart in the source and are kept apart here.

Legend:
[1] = molecular target: T1, ovine COX-2 (Ovis aries, UniProt P79208); assay: In vitro inhibition of ovine cyclooxygenase-2
T1 sequence (P79208 17-603): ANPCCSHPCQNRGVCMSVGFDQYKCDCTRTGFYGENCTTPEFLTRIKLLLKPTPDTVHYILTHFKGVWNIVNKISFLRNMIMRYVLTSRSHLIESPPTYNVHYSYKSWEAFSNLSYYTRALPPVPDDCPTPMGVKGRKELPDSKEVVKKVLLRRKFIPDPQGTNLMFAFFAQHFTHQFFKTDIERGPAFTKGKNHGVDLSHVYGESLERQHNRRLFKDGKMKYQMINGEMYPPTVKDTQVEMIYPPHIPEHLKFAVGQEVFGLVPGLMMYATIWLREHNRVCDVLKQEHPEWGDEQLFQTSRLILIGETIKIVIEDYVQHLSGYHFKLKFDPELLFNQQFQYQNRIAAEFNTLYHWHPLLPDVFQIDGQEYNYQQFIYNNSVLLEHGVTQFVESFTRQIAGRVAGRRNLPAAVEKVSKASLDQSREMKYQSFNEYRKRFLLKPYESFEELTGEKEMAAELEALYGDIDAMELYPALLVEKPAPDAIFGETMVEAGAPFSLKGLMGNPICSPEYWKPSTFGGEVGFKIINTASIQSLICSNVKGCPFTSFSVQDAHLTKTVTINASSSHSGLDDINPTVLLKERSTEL

[2] = tested on: MCF-7 cells; assay: MTT viability assay; format: cell-based; settings: Homo sapiens, MCF7, 48 h
Procedure: (§1) HeLa, MCF-7, U251, U87, MDA-MB-435, and MDA-MB-231 cancer cell lines were maintained in incubators at 37 °C with 5% CO2 in DMEM medium supplemented with 10% (v/v) fetal bovine serum (FBS) and antibiotics/antimycotics. All cell lines used in this study originate from the Laboratory of Biochemistry, Department of Chemistry, Aristotle University of Thessaloniki. They are low-passage, mycoplasma-free cancer cell lines that have been extensively used over the past 25 years in numerous studies across various fields of cancer research, including drug cytotoxicity testing.
(§2) All cell lines tested were seeded in 96-well plates at a concentration of 6 × 10^3 cells per well, except HeLa, which were seeded at 3 × 10^3 cells per well. The day after, cells were exposed to increasing concentrations of the compounds for 48 h. Cell viability was determined using the 3-(4,5-dimethylthiazol-2-yl)-2,5-diphenyltetrazolium bromide (MTT) assay, a colorimetric assessment of cellular metabolic activity as described previously. Absorbance values from treated samples were normalized to those of untreated controls, which were assigned to a 100% viability value.

[3] = tested on: HeLa cells; assay: MTT viability assay; format: cell-based; settings: Homo sapiens, 48 h
Procedure: as §1, §2

[4] = In vitro inhibition of linoleic acid lipid peroxidation (AAPH); settings: 100 μM; anti-lipid peroxidation
Procedure, shortened: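 Thermal decomposition of AAPH generated alkylperoxy radicals that oxidized sodium linoleate in aqueous dispersion at 37 °C. Formation of conjugated diene hydroperoxides was followed by absorbance at 234 nm, with Trolox as reference.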

[5] = tested on: multiple cancer cell lines; assay: MTT viability assay, summary over several lines; format: cell-based
Procedure: as §1, §2

[6] = tested on: MDA-MB-231 cells; assay: MTT viability assay; format: cell-based; settings: Homo sapiens, 48 h
Procedure: as §1, §2

[7] = tested on: U251 cells; assay: MTT viability assay; format: cell-based; settings: Homo sapiens, U-251, 48 h
Procedure: as §1, §2

[8] = tested on: MDA-MB-435 cells; assay: MTT viability assay; format: cell-based; settings: Homo sapiens, 48 h
Procedure: as §1, §2

[9] = tested on: U87 cells; assay: MTT viability assay; format: cell-based; settings: Homo sapiens, U-87 MG, 48 h
Procedure: as §1, §2

IC50 [1] | EC50 [2] | EC50 [3] | EC50 ([5]; U251, U87, and MDA-MB-231, read-out: EC50 values in the remaining cell lines) | EC50 ([5]; read-out: EC50 values across multiple cancer cell lines) | EC50 [6] | EC50 [7] | EC50 [8] | EC50 [9] | Structure (SMILES) | AAPH Inh. at 100 μΜ [4]
35 µM | > 100 µM | 83 µM |  |  |  |  |  |  | C/C(=N\O)c1ccc(NC(=O)COC(=O)/C=C/c2cccs2)cc1 [Compound 6c, 2-((4-((E)-1-(Hydroxyimino)ethyl)phenyl)amino)-2-oxoethyl (E)-3-(thiophen-2-yl)acrylate] | 4%
80 µM | 38.3 µM | 36.7 µM | 40.9 to 45.4 µM | 36 to 45 µM | 42.8 µM | 40.9 µM | 52.9 µM | 45.4 µM | C/C(=N\O)c1ccc(NC(=O)COC(=O)/C(=C/c2cccs2)c2ccccc2)cc1 [Compound 6i, 2-((4-((E)-1-(Hydroxyimino)ethyl)phenyl)amino)-2-oxoethyl (E)-2-phenyl-3-(thiophen-2-yl)acrylate] | 28%
8.25 µM | 58.5 µM | 55.5 µM |  |  |  |  |  |  | O=C(/C=C/c1cc2ccccc2s1)OCc1c(-c2ccccc2)no[n+]1[O-] [Compound 9e, (E)-3-(((3-(Benzo[b]thiophen-2-yl)acryloyl)oxy)methyl)-4-phenyl-1,2,5-oxadiazole 2-oxide] | 67%
